Reference: PMC7181277, “Synthesis and Biological Evaluation of New Antitubulin Agents Containing 2-(3′,4′,5′-trimethoxyanilino)-3,6-disubstituted-4,5,6,7-tetrahydrothieno[2,3-c]pyridine Scaffold” (Molecules, 2020)

Tests used:
[1] = system: murine leukemia (L1210) cells; assay: In vitro antiproliferative assay, L1210 cells; type: cell-based; details: Mus musculus
Excerpt: In Table 1 we report the in vitro antiproliferative activity of 2-(3′,4′,5′-trimethoxyanilino)-4,5,6,7-tetrahydrothieno[2,3-c]pyridine derivatives 3a–3j and the related 4,5,6,7-tetrahydrobenzo[b]thiophenes 3k–3p against a panel of three cell lines, which were derived from different cancer types, including murine leukemia (L1210), human T-lymphoblastoid leukemia (CEM), and human cervix carcinoma (HeLa) cells.
(§1) Murine leukemia L1210, human T-lymphocyte leukemia CEM, human cervix carcinoma (HeLa), and human chronic myelogenous leukemia K562 cells (3–5 × 10^4 cells) and a serial (5-fold) dilution of the test compounds were added to a 96-well microtiter plate. The cells were incubated for 72 h at 37 °C in a humidified 5% CO2 atmosphere. At the end of the incubation period, the cells were counted in a Coulter Counter (Coulter Electronics Ltd., Harpenden Herts, United Kingdom). The IC50 (50% inhibitory concentration) was defined as the concentration of compound that inhibited cell proliferation by 50%. The IC50 values represent the average (± standard deviation) of three independent experiments. Human peripheral blood mononuclear cells (PBMC) were obtained from healthy donors by centrifugation with Ficoll-Paque Plus (GE Healthcare Bio-Sciences AB, Uppsala).

Bovine brain tubulin = assay: Inhibition of tubulin polymerization (turbidimetric assembly); type: biochemical; details: tubulin at 10 μM, 20 min incubation; read-out: Tubulin assembly IC50 ± SD
Description: (§2) Bovine brain tubulin was purified as described previously. To evaluate the effect of the compounds on tubulin assembly in vitro [59], varying concentrations were preincubated with 10 μM tubulin in 0.8 M glutamate buffer at 30 °C and then cooled to 0 °C. After addition of GTP, the mixtures were transferred to 0 °C cuvettes in a recording spectrophotometer and warmed to 30 °C, and the assembly of tubulin was observed turbidimetrically. […] The ability of the test compounds to inhibit colchicine binding to tubulin was measured as described earlier, except that the reaction mixtures contained 1 μM tubulin, 5 μM of [^3H]colchicine, and test compounds 3a or 3b.

[2] = system: tubulin (colchicine site); assay: Inhibition of [3H]colchicine binding to tubulin; parameters: species or system Bovine; details: tubulin 1 μM, colchicine 5 μM, compound 5 μM
Description: as §2

[3] = system: human cervix carcinoma (HeLa) cells; assay: In vitro antiproliferative assay, HeLa cells; type: cell-based; details: human cervix carcinoma HeLa, 72 h, cell count; mean ± SE
Description: as §1, with “The IC50 (50% inhibitory concentration) was defined as the concentration of compound that inhibited cell proliferation by 50%.” left out

[4] = system: human T-lymphoblastoid leukemia (CEM) cells; assay: In vitro antiproliferative assay, CEM cells; type: cell-based; details: CCRF-CEM; human T-lymphocyte CEM, 72 h, cell count; mean ± SE
Description: as §1, with “The IC50 (50% inhibitory concentration) was defined as the concentration of compound that inhibited cell proliferation by 50%.” left out

[5] = murine leukemia L1210, 72 h, cell count, mean ± SE

| IC50 [1, 5] | IC50 [3] | IC50 [4] | melting point | SMILES | IC50 ([1]; L1210, 72 h) | IC50 (Bovine brain tubulin) | Colchicine binding % ± SD (inhibition of [3H]colchicine binding) [2] |
| --- | --- | --- | --- | --- | --- | --- | --- |
|  |  |  |  | COc1ccc(/C=C\c2cc(OC)c(OC)c(OC)c2)cc1O [CA-4, combretastatin A-4, reference compound] | 0.0028 ± 0.0011 µM | […] | 98 ± 0.9% |
| 6 ± 0.3 µM | 41 ± 27 µM | 3.7 ± 1.2 µM |  | CCOC(=O)N1CCc2c(sc(NC(=O)c3cccs3)c2C#N)C1 [Compound 2b, reference compound] |  |  |  |
| 17 ± 5 µM | 23 ± 10 µM | 16 ± 4 µM | 140 to 141 °C | COC(=O)c1c(Nc2cc(OC)c(OC)c(OC)c2)sc2c1CCN(C(=O)OC)C2 [Compound 3c, Dimethyl 2-((3,4,5-trimethoxyphenyl)amino)-4,5-dihydrothieno[2,3-c]pyridine-3,6(7H)-dicarboxylate] |  |  |  |
| 15 ± 2 µM | 16 ± 3 µM | 12 ± 4 µM | 76 to 78 °C | CCOC(=O)N1CCc2c(sc(Nc3cc(OC)c(OC)c(OC)c3)c2C(=O)OC)C1 [Compound 3d, 6-Ethyl 3-methyl 2-((3,4,5-trimethoxyphenyl)amino)-4,5-dihydrothieno[2,3-c]pyridine-3,6(7H)-dicarboxylate] |  |  |  |
| 26 ± 2 µM | 48 ± 17 µM | 43 ± 12 µM | 90 to 91 °C | COC(=O)c1c(Nc2cc(OC)c(OC)c(OC)c2)sc2c1CCN(C(C)=O)C2 [Compound 3e, Methyl 6-acetyl-2-((3,4,5-trimethoxyphenyl)amino)-4,5,6,7-tetrahydrothieno[2,3-c]pyridine-3-carboxylate] |  |  |  |
| 22 ± 4 µM | 67 ± 20 µM | 22 ± 8 µM | 128 to 130 °C | CCOC(=O)c1c(Nc2cc(OC)c(OC)c(OC)c2)sc2c1CCN(C(=O)OC)C2 [Compound 3f, 3-Ethyl 6-methyl 2-((3,4,5-trimethoxyphenyl)amino)-4,5-dihydrothieno[2,3-c]pyridine-3,6(7H)-dicarboxylate] |  |  |  |
| 19 µM | 19 ± 4 µM | 19 ± 1 µM | 67 to 69 °C | CCOC(=O)c1c(Nc2cc(OC)c(OC)c(OC)c2)sc2c1CCN(C(=O)OCC)C2 [Compound 3g, Diethyl 2-((3,4,5-trimethoxyphenyl)amino)-4,5-dihydrothieno[2,3-c]pyridine-3,6(7H)-dicarboxylate] |  |  |  |
| 25 ± 3 µM | 24 ± 3 µM | 34 ± 9 µM | 93 to 95 °C | CCOC(=O)c1c(Nc2cc(OC)c(OC)c(OC)c2)sc2c1CCN(C(C)=O)C2 [Compound 3h, Ethyl 6-acetyl-2-((3,4,5-trimethoxyphenyl)amino)-4,5,6,7-tetrahydrothieno[2,3-c]pyridine-3-carboxylate] |  |  |  |
| 18 ± 3 µM | 14 ± 1 µM | 20 ± 2 µM | 50 to 52 °C | COC(=O)N1CCc2c(sc(Nc3cc(OC)c(OC)c(OC)c3)c2C(=O)OC(C)(C)C)C1 [Compound 3i, 3-tert-butyl 6-methyl 2-((3,4,5-trimethoxyphenyl)amino)-4,5-dihydrothieno[2,3-c]pyridine-3,6(7H)-dicarboxylate] |  |  |  |
| 19 ± 3 µM | 20 ± 4 µM | 19 ± 2 µM | 60 to 62 °C | CCOC(=O)N1CCc2c(sc(Nc3cc(OC)c(OC)c(OC)c3)c2C(=O)OC(C)(C)C)C1 [Compound 3j, 3-tert-butyl 6-ethyl 2-((3,4,5-trimethoxyphenyl)amino)-4,5-dihydrothieno[2,3-c]pyridine-3,6(7H)-dicarboxylate] |  |  |  |
| > 250 µM | 202 ± 25 µM | > 250 µM | 112 to 114 °C | COc1cc(Nc2sc3c(c2C#N)CCC(C)C3)cc(OC)c1OC (centres unmarked) [Compound 3k, 6. -Methyl-2-((3,4,5-trimethoxyphenyl)amino)-4,5,6,7-tetrahydrobenzo[b]thiophene-3-carbonitrile] |  |  |  |
| 92 ± 29 µM | 124 ± 8 µM | 58 ± 53 µM | 169 to 170 °C | COc1cc(Nc2sc3c(c2C#N)CCC(c2ccccc2)C3)cc(OC)c1OC (centres unmarked) [Compound 3l, 6. -Phenyl-2-((3,4,5-trimethoxyphenyl)amino)-4,5,6,7-tetrahydrobenzo[b]thiophene-3-carbonitrile] |  |  |  |
| 82 ± 13 µM | 11 ± 6 µM | 45 ± 17 µM | 127 to 129 °C | COC(=O)c1c(Nc2cc(OC)c(OC)c(OC)c2)sc2c1CCC(C)C2 (centres unmarked) [Compound 3m, Methyl 6-methyl-2-((3,4,5-trimethoxyphenyl)amino)-4,5,6,7-tetrahydrobenzo[b]thiophene-3-carboxylate] |  |  |  |
| 101 ± 9 µM | 48 ± 6 µM | 102 ± 50 µM | 147 to 148 °C | COC(=O)c1c(Nc2cc(OC)c(OC)c(OC)c2)sc2c1CCC(c1ccccc1)C2 (centres unmarked) [Compound 3n, Methyl 6-phenyl-2-((3,4,5-trimethoxyphenyl)amino)-4,5,6,7-tetrahydrobenzo[b]thiophene-3-carboxylate] |  |  |  |
| 86 ± 41 µM | 66 ± 6 µM | 78 ± 33 µM | 90 to 92 °C | CCOC(=O)c1c(Nc2cc(OC)c(OC)c(OC)c2)sc2c1CCC(C)C2 (centres unmarked) [Compound 3o, Ethyl 6-methyl-2-((3,4,5-trimethoxyphenyl)amino)-4,5,6,7-tetrahydrobenzo[b]thiophene-3-carboxylate] |  |  |  |
| 112 ± 1 µM | 169 ± 18 µM | 88 ± 12 µM | 98 to 100 °C | CCOC(=O)c1c(Nc2cc(OC)c(OC)c(OC)c2)sc2c1CCC(c1ccccc1)C2 (centres unmarked) [Compound 3p, Ethyl 6-phenyl-2-((3,4,5-trimethoxyphenyl)amino)-4,5,6,7-tetrahydrobenzo[b]thiophene-3-carboxylate] |  |  |  |
